US20250235467A1, “DENDRITIC CELL VACCINATION IN PARALLEL TO CHEMOTHERAPY” (priority 2018, published 2025)
Read-outs that look alike come from different tables or passages of the source. Marks after values point to notes of the source that are not given here.

Legend:
[1] = system: metastatic stage IV non-small cell lung cancer (NSCLC); test: Open label, multicenter phase II clinical trial, DCVAC/LuCa + carboplatin and paclitaxel vs carboplatin and paclitaxel alone; assay type: in vivo, human; conditions: PP population; interim analysis of PFS
Description: The purpose of the study is to compare efficacy of DCVAC/LuCa+chemotherapy (carboplatin and paclitaxel) vs. carboplatin and paclitaxel alone in patients with stage IV NSCLC, as measured by OS and progression free survival (PFS). PFS was measured based on radiological assessments according to the RECIST (Response Evaluation Criteria in Solid Tumors) guidelines (version 1.1) (Eisenhauer et al. 2009).
The planned number of chemotherapy cycles was 4-6 in all treatment groups (FIG. 7).

[2] = system: newly diagnosed epithelial ovarian carcinoma
Description: The study was conducted as an open label, multicenter phase II clinical trial in women with newly diagnosed epithelial ovarian carcinoma who have undergone debulking surgery.
The planned number of chemotherapy cycles was 6 in all treatment groups (FIG. 1).
Results were calculated either by using as beginning of the trial period the time of first treatment or the time of randomization. Two pre-planned per protocol interim analyses of PFS and OS were performed first at 6 months and second at 12 months after the last dose of standard of care chemotherapy of the last enrolled patient. […]

[3] = system: platinum-sensitive recurrent ovarian cancer; conditions: cited from earlier work; for PFS HR: p <0.0001
[4] = system: relapsed platinum-sensitive epithelial ovarian cancer; test: Randomized, open-label phase II clinical trial, DC vaccine added to carboplatin and gemcitabine vs chemotherapy alone; assay type: in vivo, human; conditions: ITT population, N = 32 per group
From the text: An interim analysis was first performed, followed later by the final analysis.
A total of 6, 8, or 10 cycles of standard of care chemotherapy were to be completed by patients in both treatment groups as per investigators' decision (FIG. 4).

[5] = group A: after the start of DC vaccine treatment, group B: shorter reporting time period

carboplatin and paclitaxel
Progression of the lung cancer disease [1]: progressed for all patients
No. of 1st-line chemotherapy non-responders: n (%) ([2]; ITT population, N = 31 per group): 0 (0.00%) n (%)
Number of SAEs reported [2, 5]: 14
Number of patients in whom SAEs were reported [2, 5]: 9

Bevacizumab
OS HR ([3]; bevacizumab 15 mg/kg IV q3w + carboplatin AUC4 + gemcitabine, p 0.6479): 0.952^c
OS HR ([3]; bevacizumab 15 mg/kg IV q3w + carboplatin AUC4 + gemcitabine, p 0.6479, listed as bevacizumab): 0.952
PFS HR ([3]; bevacizumab 15 mg/kg IV q3w + carboplatin AUC4 + gemcitabine): 0.48^c
OS HR ([3]; bevacizumab 15 mg/kg IV q3w + carboplatin AUC5 + paclitaxel, p 0.0447): 0.823^c
OS HR ([3]; bevacizumab 15 mg/kg IV q3w + carboplatin AUC5 + paclitaxel, p 0.0447, listed as bevacizumab): 0.823
PFS HR ([3]; bevacizumab 15 mg/kg IV q3w + carboplatin AUC5 + paclitaxel): 0.613^c

carboplatin and gemcitabine
No. of 2nd-line chemotherapy non-responders: n (%) [4]: 0 (0.00%) n (%)
